Experimental data published in US20100150938A1, “METHODS AND COMPOSITIONS FOR REDUCING INFLAMMATION AND TREATING INFLAMMATORY DISORDERS” (UNIVERSITY OF MASSACHUSETTS, priority 2008, published 2010).
“Also recorded” adds a separate entry of the source. Blank lines part the entries; values can stand above or below the compound they belong to. Non-standard residues stand in square brackets, D forms with d. Residues, ends and D or L forms follow the SMILES beside them. *: point of attachment. Sta = CC(C)C[C@H](N)[C@@H](O)CC(=O)O; Isovaleryl = CC(C)CC(=O)*; Cbz = O=C(OCc1ccccc1)*; CH2F = FC*

Tests used:
[1] = test system: caspase-1; experiment: Caspase-1 activation in microglia (FLICA, confocal microscopy, flow cytometry); assay type: cell-based, mouse
Experimental: For assessment of microglia-induced neurotoxicity, CAD mouse neuronal cells^47 were seeded on poly-L-lysine coated glass cover slips and grown in F12/DMEM supplemented with ciprofloxacin (Cellgro, Manassas, Va.) and 10% fetal calf serum (Hyclone, Logan, Utah) for 24 h. Differentiation was induced by withdrawal of serum for 48 h Immortalized microglia from wildtype or caspase-1^−/− mice were added in serum free medium to obtain mixed neuronal/microglial cultures and immediately stimulated. 72 h after stimulation with Aβ or media, cells were fixed, stained for the neuron-specific marker TuJ-1 and microglial marker CD11b, and imaged by confocal microscopy (Leica SP2 AOBS). Caspase-1 activity in microglial cells was assessed using the caspase-1 FLICA™ kit (Immunochemistry Technologies, Bloomington, Minn.) according to the manufacturer's instructions.
For evaluation of lysosomal damage, cells were incubated with LysoTracker green (1:2000) for 30 min and stimulated as described. Lysosomal damage was defined as loss of LysoTracker fluorescence as assessed by flow cytometry. All flow cytometry experiments were performed on an LSRII cytometer (BD Biosciences), data were acquired by DIVA software (BD Biosciences) and analyzed with FlowJo software (Tree Star Inc., Ashland, Oreg.).
IL-1β maturation is controlled by caspase-1 after assembly of the inflammasome, a multi protein complex that activates pro-caspase-1. In order to test whether Aβ activates caspase-1, we measured levels of activated caspase-1 using a fluorescent cell permeable probe (FAM-YVAD-Fmk), which covalently binds only to activated caspase-1 (Fluorescent labeled Inhibitors of Caspases, FLICA)^14. […] Similar results were obtained in primary microglial cultures (FIG. 15c).

[2] = test system: mouse microglia; experiment: IL-1β release from LPS-primed mouse microglia (ELISA); assay type: cell-based; settings: LPS-primed immortalized microglia
Experimental: For primary cultures, bone marrow-derived macrophages and microglia were isolated as described^42,43 and cultured in DMEM supplemented with L-glutamine, ciprofloxacin (Cellgro, Manassas, Va.) and 10% fetal calf serum (Hyclone, Logan, Utah) Immortalized macrophage and microglial cell lines were generated using J2 recombinant retrovirus (carrying v-myc and v-raf oncogenes)^44,45. Briefly, primary bone marrow cells were incubated in L929 conditioned medium for 3-4 days to induce macrophage differentiation. Cells were then infected with J2 recombinant retrovirus and maintained in culture until cells were growing in the absence of conditioned medium. Similarly, primary mixed glial cultures were cultured until fully confluent. After two consecutive infections with J2 retrovirus, cells were maintained in normal medium until growth of microglial cells in colonies was observed. The semi-adherent colonies of microglial cells were washed off and cultured in new flasks. […] Microglial cell lines form wild type (C57/BL6), Caspase-1^−/− and IL-IR^−/− mice as well as macrophage cell lines from wild type (C57BL6), NALP3 -, IPAF- and ASC-deficient mice were generated and used for experiments as indicated.
(§1) Stimulations were carried out in serum free DMEM medium. Microglial cells and macrophages were primed with 100 U/ml IFNγ (Griess assay, TNF ELISA, real-time quantitative PCR) or 100 ng/ml ultrapure LPS (IL-1β ELISA, FLICA, ASC-CFP microglia cell line assay, Western blot) 1-3 h prior to stimulation with Aβ, revAβ, zymosan, ATP or transfection with dAdT.
Cell culture supernatants were assayed for IL-1β and TNFα using ELISA kits from R&D Systems (Minneapolis, Minn.) according to the manufacturer's instructions. Nitric oxide was measured by Griess reaction of nitrites accumulated in the supernatants using chemicals from Sigma.

[3] = test system: THP-1 cells; experiment: Lysosomal rupturing in THP-1 cells, IL-1β release; assay type: cell-based, human; settings: PMA-differentiated THP-1 cells
Experimental: Cell culture supernatants were assayed for IL-1β using ELISA kits from BD Biosciences (Franklin Lakes, NJ) according to the manufacturer's instructions. To measure intracellular IL-1β, cells were washed and subjected to three freeze thaw cycles in assay diluent. PMA-differentiated THP-1 cells were incubated with hypertonic DMEM medium containing 10% polyethylene glycol (PEG) 1000, 1.4 M sucrose, 20 mM Hepes (pH 7.2) and 5% FCS for […] at 37° C. Cells were subsequently washed and incubated in hypotonic DMEM medium [DMEM: H2O (3:2)] for 2 min to induce lysosomal rupturing. Cells were then incubated in serum free DMEM for additional 4 hours.

[4] = test system: caspase-1; experiment: Caspase-1 cleavage/activation in mouse macrophages (Western blot p10); assay type: cell-based; settings: for caspase-1 cleavage induced by the stimulus: LPS-primed bone marrow-derived macrophages, wild-type; for caspase-1 cleavage (p10) induced by the stimulus: LPS-primed wild type bone marrow-derived macrophages, Aβ and reverse Aβ 10 μM
Experimental: (§2) Bone marrow derived macrophages were generated as described (Severa, M et al. Journal of Biological Chemistry 281:26188-26195 (2006)). Human PBMCs were isolated by from whole blood of healthy volunteers by density gradient centrifugation. Lysis of red blood cells was performed using red blood cell lysis buffer (Sigma). Experiments in PBMCs and macrophages were carried out at a cell density of 2×10^6 cells/ml. All primary cells and cell lines except THP-1 cells were cultured in DMEM supplemented with L-glutamine, ciprofloxacin (Cellgro, Manassas, Va.) and 10% fetal calf serum (Hyclone, Logan, Utah). THP-1 cells were cultured in RPMI supplemented with 10% fetal calf serum (Hyclone), L-glutamine, sodium pyruvate (Cellgro), and ciprofloxacin. One day prior to stimulation, THP-1 cells were differentiated using 0.5 μM PMA for three hours, washed three times and plated for stimulation. All experiments that were performed for Western blot analysis were carried out in serum free DMEM medium. ATP stimulations were carried out at 5 mM one hour prior to harvesting supernatants.
Cell culture supernatants were precipitated by adding an equal volume of methanol and 0.25 volumes of chloroform, vortexed and centrifuged at 20.000×g for 10 min. The upper phase was discarded and 500 μl of methanol was added to the interphase. This mixture was centrifuged at 20.000×g for 10 min and the protein pellet dried at 55° C., resuspended in Laemmli buffer and boiled at 99° C. for 5 min. Samples were separated by SDS-PAGE (15%) and transferred onto nitrocellulose membranes. As indicated, blots were incubated with rabbit polyclonal antibody to anti murine caspase-1 p10 (sc-514, Santa Cruz Biotechnology, Santa Cruz, Calif.), rabbit polyclonal anti human caspase-1 p10 (sc-515, Santa Cruz Biotechnology), rabbit polyclonal anti human cleaved IL-1β (Asp116) (Cell Signaling, Boston, Mass.) or rabbit polyclonal anti murine cathepsin B (R&D Systems, Minneapolis, Minn.).
Cell culture supernatants were precipitated by adding an equal volume of methanol and 0.25 volumes of chloroform, vortexed and centrifuged at 20,000×g for 10 min. The upper phase was discarded and 500 μl of methanol was added to the interphase. This mixture was centrifuged at 20,000×g for 10 min and the protein pellet dried at 55° C., resuspended in Laemmli buffer and boiled at 99° C. for 5 min Samples were separated by SDS-PAGE (15%) and transferred onto nitrocellulose membranes. Blots were incubated with rabbit polyclonal antibody to anti murine caspase-1 p10 (sc-514, Santa Cruz Biotechnology, Santa Cruz, Calif.).

[5] = test system: lysosomes of mouse macrophages; experiment: Lysosomal acidification, proteolysis and rupture in mouse macrophages (LysoSensor Green, DQ ovalbumin, acridine orange, dextran); assay type: cell-based
Experimental: For evaluation of lysosomal rupture, cells were incubated with 1 μg/m1 acridine orange for 15 min, washed three times and subsequently stimulated as indicated. Lysosomal rupture can be assessed by loss of emission at 600-650 nm using flow cytometry. All flow cytometry experiments were performed on an LSRII cytometer (BD Biosciences). Data were acquired by DIVA (BD Biosciences) and analyzed by FlowJo software (Tree Star Inc., Ashland, Oreg.).
Confocal reflection microscopy was combined with fluorescence microscopy on a Leica SP2 AOBS confocal laser scanning microscope. Reflection was captured by placing the detector channel directly over the wavelength of the selected laser channel for reflection light capture and the AOBS was set to allow 5-15% of laser light into the collection channel. Fluorescence was simultaneously captured by standard confocal imaging techniques.

[6] = test system: mouse macrophages; experiment: IL-1β release from LPS-primed mouse macrophages (bone marrow-derived, B6-MCLs), ELISA; assay type: cell-based
Experimental: as §2
Immortalized macrophage cell lines were generated using the previously described J2 recombinant retrovirus (carrying v-myc and v-raf/mil oncogenes) (Roberson, S. M. & Walker, W. S. Cellular immunology 116:341-351 (1988)). Briefly, primary bone marrow cells were incubated in L929 conditioned medium for 3-4 days to induce macrophage differentiation. Subsequently, cells were infected with J2 recombinant retrovirus. Cells were maintained in culture for 3-6 months slowly weaning off the percentage of L929 supernatant until cells were growing in the absence of conditioned medium.
Macrophage phenotype was verified by surface marker expression for CD11b and F480 as well as a range of functional parameters, including responsiveness to TLR ligands and bacterial uptake. Macrophage cell lines from wild-type (C57BL6), NALP3- and ASC-deficient mice were generated and are referred to as B6-MCLs, NALP3 -MCLs and ASC-MCLs.
Cell culture supernatants were assayed for IL-1β using ELISA kits from BD Biosciences (Franklin Lakes, NJ) according to the manufacturer's instructions. To measure intracellular IL-1β, cells were washed and subjected to three freeze thaw cycles in assay diluent.
as §1

[7] = test system: ASC; experiment: ASC-CFP microglia cell line, ASC clustering; assay type: cell-based, mouse; settings: LPS-primed ASC-CFP microglia, 3 h after stimulation
Excerpt: Human ASC was fused to CFP using BgIII/BamHI in pEF-BOS-CFP. Subsequently, ASC-CFP was cloned using XhoI and NotI into a modified form of FUGW (FUGW-XN). FUGW-XN was modified by replacing GFP with a novel cut site that created XhoI and NotI compatible ends upon Esp3I digestion.
Lentivirus was produced in 293T cells transfected with the FUGW based expression vector coding for ASC-CFP, lentiviral packaging plasmid containing gag, pol and rev genes (pCMV-dR8.91) and envelope plasmid (VSV-G) using TransIT-LT1 transfection reagent (Minis Bio, MIR 2300/5/6) as previously described^46. One day after transfection, medium was replaced and after one additional day of culture supernatants containing the lentivirus was removed, filtered and used to infect immortalized microglia cells.
For experiments, ASC-CFP microglial cells were seeded in duplicate into confocal dishes, stimulated as indicated. A647-labeled cholera toxin subunit B (1:1000) was added to stain cellular membranes. Cells were subsequently imaged using confocal microscopy (Leica SP2 AOBS). Cells were fixed and 5 random fields were imaged in duplicate for quantification.
First, we stably transduced microglial cell cultures with a fusion protein of ASC and cyan fluorescent protein (CFP). ASC forms large oligomers upon its activation, leading to visible changes in the cytoplasmic fluorescence pattern of ASC-CFP. […]

- caspase-1 activation induced by ATP, inhibitor present ([1]; microglia, FLICA, inhibitor 20 μM): not affected; also recorded: no effect
Compound: CCCNC(=O)[C@H]1O[C@@H]1C(=O)N[C@H](C(=O)N1CCC[C@H]1C(=O)OC)[C@@H](C)CC [CA-074-Me]
- caspase-1 activation after Aβ stimulation, inhibitor present ([1]; microglia, FLICA, flow cytometry): strongly and dose-dependently inhibited; also recorded: dose-dependently reduced
- Aβ-induced IL-1β release in presence of cathepsin inhibitor [2]: dose-dependently inhibited
- IL-1β release after lysosomal rupture, inhibitor present [3]: clearly reduced
- caspase-1 activation after silica crystal treatment, inhibitor present ([4]; LPS-primed B6-MCLs, CA-074-Me 10 μM (FIG. 5a)): much less caspase-1 activation
- caspase-1 cleavage after crystal-independent disruption of lysosomes, inhibitor present ([4]; mouse macrophages, hypertonic then hypotonic media, CA-074-Me 10 or 2 μM): partially inhibited

Compound: CO/C1=C\C(C)=C\[C@@H](C)[C@@H](O)[C@@H](C)C/C(C)=C/C=C/[C@H](OC)[C@@H]([C@@H](C)[C@@H](O)[C@H](C)[C@@]2(O)C[C@@H](O)[C@H](C)[C@@H](C(C)C)O2)OC1=O [bafilomycin A]
- formation of acidic lysosomes (LysoSensor Green) ([5]; mouse macrophages): blocked
- Leu-Leu-OMe-induced lysosomal morphology change and rupture, inhibitor present ([5]; mouse macrophages (data not shown)): much less altered lysosomal morphology and rupture
- appearance of fluorescent DQ ovalbumin (lysosomal proteolytic function) ([5]; mouse macrophages, bafilomycin 250 nM): suppressed
- ATP-induced IL-1β release, inhibitor present ([6]; LPS-primed B6-MCLs, 6 h): no effect
- silica-mediated IL-1β release, inhibitor present ([6]; LPS-primed B6-MCLs, 6 h): completely blocked
- release of IL-1b in response to Leu-Leu-OMe, inhibitor present ([6]; LPS-primed bone marrow-derived macrophages, bafilomycin 250 nM): also inhibited

Compound: O=C(NC(Cc1ccccc1)C(=O)NC(Cc1ccccc1)C(=O)CF)OCc1ccccc1 (stereo not drawn) [Z-FF-FMK] (Cbz-Phe-Phe-CH2F; configuration not given here)
- Aβ-induced IL-1β release in presence of cathepsin inhibitor [2]: no effect; also recorded: no attenuation

Compound: poly(deoxyadenylic-thymidylic) acid sodium salt [poly(dA:dT)]
- caspase-1 cleavage induced by the stimulus [4]: induced in a dose dependent way
- caspase-1 cleavage (p10) induced by the stimulus [4]: induced caspase-1 cleavage (p10)

Compound: Nc1ncnc2c1ncn2[C@@H]1O[C@H](COP(=O)(O)OP(=O)(O)OP(=O)(O)O)[C@@H](O)[C@H]1O [ATP]
- caspase-1 positive microglial cells after stimulation ([1]; immortalized microglia, Aβ 10 μM, revAβ 10 μM, ATP 1 mM, 4 h): robust increase
- formation of fluorescent ASC-CFP clusters [7]: also observed
- IL-1β release induced by the stimulus ([3]; 4 h): increased IL-1β release
- caspase-1 cleavage induced by the stimulus [4]: induced in a dose dependent way
- caspase-1 cleavage (p10) induced by the stimulus [4]: induced caspase-1 cleavage (p10)

Compound: CC(C)CC(=O)N[C@H](C(=O)N[C@H](C(=O)N[C@@H](CC(C)C)[C@@H](O)CC(=O)N[C@@H](C)C(=O)N[C@@H](CC(C)C)[C@@H](O)CC(=O)O)C(C)C)C(C)C [pepstatin A] (Isovaleryl-VV[Sta]A[Sta]-OH)
- Aβ-induced IL-1β release in presence of cathepsin inhibitor [2]: no effect; also recorded: no attenuation

Compound: COC(=O)[C@H](CC(C)C)NC(=O)[C@@H](N)CC(C)C [Leu-Leu-OMe, L-leucyl-L-leucine methyl ester]
- lysosomal rupture / loss of lysosomes caused by the stimulus ([5]; mouse macrophages, acridine orange, DQ ovalbumin, dextran): considerable swelling and rupture of lysosomes
- IL-1β produced in response to the stimulus ([6]; LPS-primed macrophages from wild-type mice): large quantities of IL-1β
